Test results: patent US8053445B2, “Utilities of olefin derivatives” (Shionogi & Co., Ltd., priority 2001, dated 2011)

What was measured:
[1] = tested on: promoter region of the gene encoding human apoAI; assay: Activity to enhance the expression of human apoAI (apoAI promoter-luciferase reporter in HepG2 cells); type: cell-based; details: HepG2 cells stably expressing apoAI promoter-luciferase reporter; compounds at 0 to 10 μg/mL, 24 hours incubation
Method: The promoter region of the gene encoding human apoAI was isolated, and ligated upstream the structure gene of firefly luciferase to construct a reporter plasmid. The reporter plasmid and a marker plasmid conferring the neomycin resistance were co-infected to cell lines derived from human hepatoma, HepG2 cells, and the cell lines were incubated in a selection medium comprising DMEM medium containing 10% fetal calf serum supplemented with G418 (Final concentration: 0.7 mg/mL, Gibco) to give established strains that stably expressed the reporter molecule. The strains were seeded to a 96-well culture plates at a density of 50,000 cells per well, and incubated for 48 hours at 37° C. under an atmosphere of 5% carbon dioxide. […] The concentration of the compounds, which intensified the luciferase activity twice compared to that of control (DMSO without any compound of the invention added) was set as the minimal effective dose (MED).

COc1cc(C=CC=Cc2ccccn2)ccc1OC(C)=O [Ic-18, phenyl 2-methoxy-4-(4-pyridin-2-yl-buta-1,3-dienyl)acetate]
MED (minimum effective dose: concentration of the compound which intensified the luciferase activity twice compared to control) [1]: 1.9 µg/mL

FC(F)(F)c1ccc(C=Cc2ccccn2)cc1 [Ib-9, 2-[2-(4-trifluorophenyl)vinyl]pyridine]
MED (minimum effective dose: concentration of the compound which intensified the luciferase activity twice compared to control) [1]: 0.71 µg/mL

c1ccc(-c2ccc(-c3cnc4ccccc4n3)cc2)cc1 [Ia-10, 2-(biphenyl-4-yl)quinoxaline]
melting point: 126 to 127 °C

c1ccc2nc(-c3ccsc3)cnc2c1 [Ia-6, 2-(thiophen-3-yl)quinoxaline]
melting point: 86 to 87 °C

2-(2-thiophen-3-yl-vinyl)benzothiazole [Ib-91]
MED (minimum effective dose: concentration of the compound which intensified the luciferase activity twice compared to control) [1]: 0.7 µg/mL

c1ccc(-c2ccc(-c3ccc4ccccc4n3)cc2)cc1 [Ia-12, 2-(biphenyl-4-yl)quinoline]
melting point: 180 to 182 °C

2-phenyl-5-pyridin-2-yl-penta-2,4-diene nitrile [Ic-76]
MED (minimum effective dose: concentration of the compound which intensified the luciferase activity twice compared to control) [1]: 0.23 µg/mL

c1ccc2nc(-c3ccsc3)ccc2c1 [Ia-15, 2-(thiophen-3-yl)quinoline]
melting point: 132 to 133 °C

C(=Cc1ccccc1)Sc1ccccn1 [Id-4, 2-styrylsulfanil-pyridine]
MED (minimum effective dose: concentration of the compound which intensified the luciferase activity twice compared to control) [1]: 1.0 µg/mL

Clc1ccc(-c2ccc3ccccc3n2)cc1 [Ia-16, 2-(4-chlorophenyl)quinoline]
melting point: 113 to 115 °C

COc1ccc(-c2cnc3ccccc3n2)cc1 [Ia-3, 2-(4-methoxyphenyl)quinoxaline]
melting point: 101 to 102 °C
